ChEMBL document CHEMBL3885861, “Open TG-GATES”

Species: Rattus norvegicus
Assay: Open TG-GATES - Regimen: Daily Repeat
Type: toxicity, organism-based, Sprague-Dawley
Design: regimen Daily Repeat, gender Male, age 6 weeks
Conditions: in vivo, po, route gavage; for APTT / Bas / Eos / Fbg / Ht / Lym / MCHC / MCV / Mono / Neu / PT / Plat / RBC / Ret: tissue Blood; for KIDNEY_L / KIDNEY_R / KIDNEY_TOTAL: tissue Kidney; for AST / CRE / GLC / IP / K / LDH / RALB / TBIL / TC / TP / gamma-GTP: tissue Plasma
[1] = 30 mg/kg, 72 h, dose level Middle, time 3 day
[2] = 30 mg/kg, […], dose level Middle, time 7 day
[3] = 30 mg/kg, […], dose level Middle, time 14 day
[4] = 30 mg/kg, […], dose level Middle, time 28 day
[5] = 100 mg/kg, 72 h, dose level High, time 3 day
[6] = 100 mg/kg, […], dose level High, time 7 day
[7] = 100 mg/kg, […], dose level High, time 14 day
[8] = 100 mg/kg, […], dose level High, time 28 day

## CN(C)CCCN1c2ccccc2CCc2ccccc21 [IMIPRAMINE]
[1]
  TERMINAL_BW: 214.6 g
  APTT: 16.4 s
  Bas: 0%
  Eos: 1.4%
  Fbg: 303.4 mg/dL
  Ht: 44.3%
  Lym: 83.8%
  MCHC: 33%
  MCV: 61.8 fL
  Mono: 2%
  Neu: 12%
  PT: 16.9 s
  Plat: 115.8 x10_4/uL
  RBC: 717.2 x10_4/ul
  Ret: 3.2%
  KIDNEY_L: 0.9 g
  KIDNEY_R: 0.9 g
  KIDNEY_TOTAL: 1.8 g
  AST: 58.8 IU/L
  CRE: 0.2 mg/dL
  GLC: 182.4 mg/dL
  IP: 7.6 mg/dL
  K: 4.3 meq/L
  LDH: 90.4 IU/L
  RALB: 2.6 g/dL
  TBIL: 0.058 mg/dL
  TC: 77 mg/dL
  TP: 5.9 g/dL
  gamma-GTP: 1 IU/L
[2]
  TERMINAL_BW: 244.7 g
  APTT: 16.2 s
  Bas: 0%
  Eos: 1%
  Fbg: 323.8 mg/dL
  Ht: 41.6%
  Lym: 78.6%
  MCHC: 33%
  MCV: 61.3 fL
  Mono: 2%
  PT: 16.1 s
  Plat: 118.6 x10_4/uL
  RBC: 678.2 x10_4/ul
  Ret: 3.9%
  KIDNEY_L: 1.1 g
  KIDNEY_R: 1.1 g
  KIDNEY_TOTAL: 2.1 g
  AST: 59 IU/L
  CRE: 0.2 mg/dL
  GLC: 173 mg/dL
  IP: 7 mg/dL
  K: 4.2 meq/L
  LDH: 88.8 IU/L
  RALB: 2.5 g/dL
  TBIL: 0.044 mg/dL
  TC: 85 mg/dL
  TP: 5.8 g/dL
  gamma-GTP: 0.4 IU/L
[3]
  TERMINAL_BW: 294.7 g
  APTT: 16.3 s
  Bas: 0%
  Eos: 1.2%
  Fbg: 303.2 mg/dL
  Ht: 42.5%
  Lym: 75.8%
  MCHC: 33.4%
  MCV: 59.7 fL
  Mono: 2.6%
  PT: 16.3 s
  Plat: 107.7 x10_4/uL
  RBC: 712.4 x10_4/ul
  Ret: 4.3%
  KIDNEY_L: 1.2 g
  KIDNEY_R: 1.2 g
  KIDNEY_TOTAL: 2.4 g
  AST: 53.6 IU/L
  CRE: 0.2 mg/dL
  GLC: 170.8 mg/dL
  IP: 6.9 mg/dL
  K: 4.3 meq/L
  LDH: 100.6 IU/L
  RALB: 2.6 g/dL
  TBIL: 0.046 mg/dL
  TC: 88.2 mg/dL
  TP: 5.9 g/dL
  gamma-GTP: 0.6 IU/L
[4]
  TERMINAL_BW: 362.7 g
  APTT: 16.2 s
  Bas: 0.2%
  Eos: 1.2%
  Fbg: 305.2 mg/dL
  Ht: 45.7%
  Lym: 80.4%
  MCHC: 33.7%
  MCV: 57.1 fL
  Mono: 2%
  PT: 16.3 s
  Plat: 101.3 x10_4/uL
  RBC: 801 x10_4/ul
  Ret: 2.4%
  KIDNEY_L: 1.3 g
  KIDNEY_R: 1.3 g
  KIDNEY_TOTAL: 2.7 g
  AST: 53.8 IU/L
  CRE: 0.2 mg/dL
  GLC: 164.6 mg/dL
  IP: 7 mg/dL
  K: 4 meq/L
  LDH: 45.4 IU/L
  RALB: 2.7 g/dL
  TBIL: 0.056 mg/dL
  TC: 73.8 mg/dL
  TP: 6.3 g/dL
  gamma-GTP: 1 IU/L
[5]
  TERMINAL_BW: 197.8 g
  APTT: 15.5 s
  Bas: 0%
  Eos: 1%
  Fbg: 334.4 mg/dL
  Ht: 45.9%
  Lym: 74.8%
  MCHC: 33%
  MCV: 62.6 fL
  Mono: 2.4%
  PT: 16.5 s
  Plat: 126.7 x10_4/uL
  RBC: 733.8 x10_4/ul
  Ret: 2.8%
  KIDNEY_L: 0.9 g
  KIDNEY_R: 0.9 g
  KIDNEY_TOTAL: 1.8 g
  AST: 57.2 IU/L
  CRE: 0.2 mg/dL
  GLC: 163.8 mg/dL
  IP: 7.8 mg/dL
  K: 4.3 meq/L
  LDH: 57.8 IU/L
  RALB: 2.5 g/dL
  TBIL: 0.05 mg/dL
  TC: 93.8 mg/dL
  TP: 5.7 g/dL
  gamma-GTP: 0.8 IU/L
[6]
  TERMINAL_BW: 201.5 g
  APTT: 15.9 s
  Bas: 0%
  Eos: 1%
  Fbg: 347.8 mg/dL
  Ht: 45.6%
  Lym: 82.8%
  MCHC: 33.3%
  MCV: 59.9 fL
  Mono: 1.8%
  PT: 16.9 s
  Plat: 109.5 x10_4/uL
  RBC: 762.2 x10_4/ul
  Ret: 1.4%
  KIDNEY_L: 1 g
  KIDNEY_R: 0.9 g
  KIDNEY_TOTAL: 1.9 g
  AST: 51.6 IU/L
  CRE: 0.2 mg/dL
  GLC: 162.6 mg/dL
  IP: 7.2 mg/dL
  K: 4.1 meq/L
  LDH: 79 IU/L
  RALB: 2.5 g/dL
  TBIL: 0.048 mg/dL
  TC: 102.6 mg/dL
  TP: 5.6 g/dL
  gamma-GTP: 0.2 IU/L
[7]
  TERMINAL_BW: 221.4 g
  APTT: 18 s
  Bas: 0.4%
  Eos: 1.4%
  Fbg: 329.4 mg/dL
  Ht: 46.8%
  Lym: 69.8%
  MCHC: 33.5%
  MCV: 60.2 fL
  Mono: 4.4%
  PT: 17.3 s
  Plat: 98.5 x10_4/uL
  RBC: 777.6 x10_4/ul
  Ret: 1.7%
  KIDNEY_L: 1 g
  KIDNEY_R: 0.9 g
  KIDNEY_TOTAL: 1.9 g
  AST: 75.8 IU/L
  CRE: 0.2 mg/dL
  GLC: 155.8 mg/dL
  IP: 6.9 mg/dL
  K: 4.2 meq/L
  LDH: 73.6 IU/L
  RALB: 2.6 g/dL
  TBIL: 0.04 mg/dL
  TC: 74.6 mg/dL
  TP: 5.8 g/dL
  gamma-GTP: 1.2 IU/L
[8]
  TERMINAL_BW: 293.5 g
  APTT: 16.4 s
  Bas: 0.2%
  Eos: 1.2%
  Fbg: 377.5 mg/dL
  Ht: 46.7%
  Lym: 70%
  MCHC: 33.8%
  MCV: 55.4 fL
  Mono: 3%
  Neu: 25.2%
  PT: 16 s
  Plat: 93.4 x10_4/uL
  RBC: 842.5 x10_4/ul
  Ret: 2.6%
  KIDNEY_L: 1.2 g
  KIDNEY_R: 1.2 g
  KIDNEY_TOTAL: 2.4 g
  AST: 56 IU/L
  CRE: 0.2 mg/dL
  GLC: 148.5 mg/dL
  IP: 7 mg/dL
  K: 4.3 meq/L
  LDH: 40.5 IU/L
  RALB: 2.7 g/dL
  TBIL: 0.0425 mg/dL
  TC: 91.8 mg/dL
  TP: 6.2 g/dL
  gamma-GTP: 0.5 IU/L
